Values quoted from earlier work in patent US8758737B2, “Evaporative cooling composition” (priority 2005, dated 2014).

Details: stated as a property of the alcohol (evaporative cooling); temperature not given

Structure (SMILES)	vapor pressure
CCO [ethyl alcohol]	about 41.0 mmHg
CC(C)O [isopropyl alcohol]	310 mmHg
